# Experimental data taken from patent US8058243B2, “Method for treating a brain cancer with ifenprodil” (HSC Research and Development Limited Partnership, priority 2006, dated 2011).
# Structures can show the parent of a compound that is named as a salt. Where two headings read alike, the source gives them in different places.
# Test system: murine neural precursor cells (neurosphere cultures)
# Assay: HTS of LOPAC library against secondary neurosphere cultures, MTT proliferation assay at 3 μM, day 7 (z score, P value)
# Type: cell-based, mouse
# [1] = primary LOPAC screen, 3 μM, MTT, neurosphere proliferation
# [2] = yes/no: significantly inhibited neurosphere proliferation in the primary screen
# [3] = LOPAC screen, neurosphere MTT proliferation, 3 μM, day 7
# [4] = yes/no: significantly inhibited neurosphere proliferation (P<0.01) in primary screen
# [5] = LOPAC library screen at 3 μM, secondary neurosphere cultures, MTT
# [6] = LOPAC primary screen, neurosphere MTT proliferation, 3 μM, day 7
# [7] = yes/no: significantly inhibited neurosphere proliferation in primary screen
# [8] = LOPAC library screen, 3 μM, MTT, secondary neurosphere cultures, day 7
# [9] = yes = significantly inhibited neurosphere proliferation (P<0.01) in the primary screen
# [10] = yes/no: significantly inhibited neurosphere proliferation (P<0.01) in the primary screen
# [11] = LOPAC library screen, 3 μM, MTT, neurosphere cultures
compound,measurement,setting,value
N#CC(=C(/N)Sc1ccccc1N)/C(C#N)=C(/N)Sc1ccccc1N [U0126],Z Score,,0.711
same,Z score,[1],0.711
same,Activity,[2],no
CN(N=O)c1cc(O)ccc1O [Dephostatin],Z Score,,0.6209
same,Z score,[3],0.621
same,Activity,[4],no
NC(=O)c1cc(N2CC2)c([N+](=O)[O-])cc1[N+](=O)[O-] [CB 1954],Z Score,[5],−1.07
same,Z score,[1],−1.070
same,Activity,[2],no
"CN(C)C(=N)NCCC[C@H](N)C(=O)O.Cl [N′,N′-Dimethylarginine hydrochloride]",Z score,[3],−1.373
same,Activity,[4],no
Cl.NC1CCN(c2cccc(Cl)n2)CC1 [SR 57227A],Z Score,,−1.4
same,Z score,[6],−1.400
same,Activity,[7],no
C[C@H](CS)C(=O)N1CCC[C@H]1C(=O)O [Captopril],Z Score,[8],−1.285
same,Z score,[3],−1.285
same,Activity,[4],no
C[C@@H]1O[C@H](C[N+](C)(C)C)CS1.[I-] [OXA-22 iodide],Activity,,no
same,Z Score,,−1.666
same,Z score,,−1.666
C=CC1=C(C)c2cc3[nH]c(cc4nc(cc5[nH]c(cc1n2)c(C)c5CCC(=O)O)C(CCC(=O)O)=C4C)c(C)c3C=C [Protoporphyrin IX disodium],Z Score,"168 h, 3 µM",−3.441
same,Z score,"168 h, 3 µM",−3.441
same,Activity,[9],yes
N=C(N)NC(=N)Nc1ccccc1 [1-Phenylbiguanide],Z Score,"168 h, 3 µM",−2.689
same,Z score,"168 h, 3 µM",−2.689
same,Activity,[10],yes
"CC12NC(Cc3ccccc31)c1ccccc12.O=C(O)/C=C\C(=O)O (single isomer, unassigned; (+)) [(+)-MK-801 hydrogen maleate]",Z Score,,−0.09805
same,Z score,[6],−0.098
same,Activity,[9],no
COc1cc(C(O)CN)ccc1O.Cl (racemic) [(±)-Normetanephrine hydrochlodride],Z score,[6],−1.796
same,Activity,[9],no
CCCC(C(=O)OCCN(CC)CC)(c1ccccc1)c1ccccc1.Cl [SKF-525A hydrochloride],Z Score,,−1.928
same,Z score,[6],−1.928
same,Activity,[10],no
COc1ccc(-n2nc(C(F)(F)F)cc2-c2ccc(Cl)cc2)cc1 [SC-560],Z Score,,1.113
same,Z score,[6],1.113
CCCN(CCC)C1Cc2cc(OC)c(OC)cc2C1.O=C(O)/C=C\C(=O)O [U-99194A meleate],Z score,[6],1.255
same,Activity,[10],no
COc1cc2c(cc1C(F)(F)F)N(C(=O)Nc1cc(F)cc(-c3cccnc3)c1)CC2 [SB 228357],Z Score,,0.03426
same,Z score,[6],0.034
same,Activity,[4],no
CC(C)COC(=O)OCN1C(=O)CN(CCN2CC(=O)N(COC(=O)OCC(C)C)C(=O)C2)CC1=O [Sobuzoxane],Z Score,[8],−9.6
same,Z score,[6],−9.600
same,Activity,[9],yes
CNCCC(Oc1ccc(C(F)(F)F)cc1)c1ccccc1 (stereo not shown) [Fluoxetine hydrochloride],Activity,,no
same,Z Score,[8],−1.311
same,Z score,[6],−1.311
CC(C)(Sc1ccc(CCN(CCCCC2CCCCC2)C(=O)NC2CCCCC2)cc1)C(=O)O [GW7647],Z Score,,−0.9923
same,Z score,[6],−0.992
same,Activity,[4],no
CCCCCCCCCCCCCCCCCCOCC(COP(=O)([O-])OCC[N+](C)(C)C)OC (stereo not shown) [ET-18-OCH3],Z Score,[5],−0.6259
same,Z score,[3],−0.626
same,Activity,[4],no
NCCS(=O)(=O)O [Taurine],Z Score,[11],0.5328
same,Z score,[1],0.533
same,Activity,[2],no
COc1ccc2[nH]c3c(c2c1)CCNC3,Z Score,,−2.661
Cc1c(C)c2c(c(C)c1O)CCC(C)(CN1CCN(c3cc(N4CCCC4)nc(N4CCCC4)n3)CC1)O2.Cl.Cl (stereo not shown) [U-83836 dihydrochloride],Z Score,,0.954
same,Z score,[6],0.954
same,Activity,[10],no
CCCN1CCC[C@H](c2cccc(O)c2)C1.Cl [R(+)-3PPP hydrochloride],Z Score,,−2.213
same,Z score,[6],−2.213
same,Activity,[7],no
C[C@](N)(Cc1ccc(O)c(O)c1)C(=O)O [L-alpha-Methyl DOPA],Z Score,,−0.897
same,Z score,[6],−0.897
same,Activity,[9],no
CN(C)CCC(c1ccccc1)c1ccccn1 (stereo not shown) [Pheniramine maleate],Z Score,[5],−0.2062
same,Z score,[6],−0.206
same,Activity,[10],no
COc1cc(C(O)CN)ccc1O.Cl (stereo not shown) [(B1)-Normetanephrine hydrochloride],Z Score,[8],−1.796
Cc1ccccc1CNc1ncnc2c1ncn2[C@@H]1O[C@H](CO)[C@@H](O)[C@H]1O [Metrifudil],Z Score,[5],−0.2123
same,Z score,[6],−0.212
same,Activity,[9],no
Nc1nc(SCc2ccc([N+](=O)[O-])cc2)c2ncn([C@@H]3O[C@H](CO)[C@@H](O)[C@H]3O)c2n1 [S-(4-Nitrobenzyl)-6-thioguanosine],Z Score,[11],0.1017
same,Z score,[6],0.102
same,Activity,[7],no
